Laboratory results reported in article PMC9122598, “NASP maintains histone H3–H4 homeostasis through two distinct H3 binding modes” (Nucleic Acids Research, 2022).
“Also recorded” adds a separate entry of the source.

Legend:
Format in all cases: cell-based, human
[1] = system: endogenous s- and t-NASP (NASP-FKBP12^F36V); assay: Depletion of endogenous NASP in NASP-dTAG cells (western blot, immunofluorescence); conditions: HCT116 NASP-dTAG, 5 μM dTAG-13, 48 h
Method: (§1) Unless stated otherwise cells were grown in DMEM with Glutamax (35050061, Gibco), 10% FBS (12389802, Hyclone) and 1% penicillin/streptomycin (15140122, Gibco) at 37°C with 5% CO2. HeLa S3 and HCT116 pLVX-TetOne-Puro cell lines were grown under Puromycin selection (1 μg/ml, P8833, Sigma). In Hela S3 and HCT116 pLVX-TetOne-Puro, the expression of sNASP-TwinStrep-HA, referred as sNASP-Strep-HA above, wt and mutants was induced by treatment with 2 μg/ml Doxycycline (631311, Clontech) for 24–48 hours. HCT116 NASP-FKBP12^F36V (NASP-dTAG) were treated with 0.2% DMSO (67–68-5, Sigma) or 5 μM dTAG-13 (6605, Tocris) for the indicated times, to induce the degradation of endogenous NASP. […] 24 hours after seeding, cells were treated with either 0.2% DMSO or 5 μM dTAG-13 for 48 hours, and cell viability was quantified with CellTiter-Blue® Cell Viability Assay (G8080, Promega), according to the manufacturer's instructions.
Protein concentrations were measured using Pierce™ 660 nm Protein Assay Reagent (Thermo Scientific) or the Bradford protein assay (Bio-Rad). […] Western blots from three independent biological replicates were quantified using the software ImageJ, version 1.0. […]

[2] = system: soluble histone H3–H4 pool; assay: Soluble histone pool in HCT116 NASP-dTAG cells (western blot of soluble extracts); conditions: 5 μM dTAG-13 48 h, complementation with DOX-induced sNASP
Method: as §1, with “instructions. […]” for “instructions.”
Protein concentrations were measured using Pierce™ 660 nm Protein Assay Reagent (Thermo Scientific) or the Bradford protein assay (Bio-Rad). […] Western blots from three independent biological replicates were quantified using the software ImageJ, version 1.0.

[3] = system: HCT116 wt and NASP-dTAG cells; assay: Cell viability (CellTiter-Blue); conditions: 5 μM dTAG-13, 48 h; mean n=3; ns = P>0.05
Method: Unless stated otherwise cells were grown in DMEM with Glutamax (35050061, Gibco), 10% FBS (12389802, Hyclone) and 1% penicillin/streptomycin (15140122, Gibco) at 37°C with 5% CO2. HeLa S3 and HCT116 pLVX-TetOne-Puro cell lines were grown under Puromycin selection (1 μg/ml, P8833, Sigma). In Hela S3 and HCT116 pLVX-TetOne-Puro, the expression of sNASP-TwinStrep-HA, referred as sNASP-Strep-HA above, wt and mutants was induced by treatment with 2 μg/ml Doxycycline (631311, Clontech) for 24–48 hours. HCT116 NASP-FKBP12^F36V (NASP-dTAG) were treated with 0.2% DMSO (67–68-5, Sigma) or 5 μM dTAG-13 (6605, Tocris) for the indicated times, to induce the degradation of endogenous NASP. In the complementation experiments, HCT116 cells were simultaneously treated with 2 μg/ml Doxycycline and either 0.2% DMSO or 5 μM dTAG-13 for 48 hours, to ensure a synchronized degradation of the endogenous protein and expression of sNASP-Strep-HA wt or mutants. For cell viability experiments, HCT116 cells were seeded at low confluency in a 24 well plate. 24 hours after seeding, cells were treated with either 0.2% DMSO or 5 μM dTAG-13 for 48 hours, and cell viability was quantified with CellTiter-Blue® Cell Viability Assay (G8080, Promega), according to the manufacturer's instructions.

[4] = system: HCT116 wt and NASP-dTAG cells; assay: Cell cycle distribution (high-content microscopy, EdU); conditions: 5 μM dTAG-13, 48 h; mean n=3; ns = P>0.05
Method: HCTT116 wt and NASP-dTAG cells were seeded at a density of 3000 cells per well in 96 well plates (6055300, Cell carrier) and treated with either dTAG-13 (5 μM, 48 hours) or DMSO (0.2%, 48 hours). Before fixation, newly replicated DNA was labelled with EdU (20 mins, 10 μM) at 37°C. Cells were washed in ice-cold PBS, fixed (4% paraformaldehyde, 15 mins, 4°C) and washes twice in ice cold PBS. EdU staining followed the Click-iT plus Alexa647-picolyl azide protocol (Thermo Scientific) and DNA was stained with DAPI (4′,6-diamidino-2-phenylindole). Images were acquired on an Olympus ScanR high-content microscope and analysed with ScanR analysis software. Cell cycle gates were defined using mean EdU and total DAPI intensities.

[5] = system: endogenous s- and t-NASP, histone H3; assay: Co-immunoprecipitation of sNASP-FLAG-Myc from HeLa S3; conditions: HeLa S3, transient transfection
Method: Protein concentrations were measured using Pierce™ 660 nm Protein Assay Reagent (Thermo Scientific) or the Bradford protein assay (Bio-Rad). For immunoprecipitation, 2–3 mg of sNASP-FLAG-myc and sNASP-Strep-HA extracts were incubated for 3 hours at 4°C degrees with 50 μl of anti-Flag M2 (A2220, Sigma) or Anti-TwinStrep Mag-Strep beads (2–4090-002, Iba). After incubation, the beads were washed five times in ice-cold wash buffer (150 mM NaCl, 0.02% Nonidet P40, 50 mM Tris-HCl pH 7.6, 0.1 mM EDTA, 5% glycerol). Bound proteins were eluted with either Laemmli sample buffer 1X (LSB 4X: Tris-HCl (200 mM, pH 6.8), SDS 4%, glycerol (40%), DTT (100 mM)) or biotin elution buffer 1X (BXT buffer, 2–1042-025, Iba), respectively. Western blotting was performed as described previously ([11]). Western blots from three independent biological replicates were quantified using the software ImageJ, version 1.0.

Molecule | Depletion of endogenous NASP [1] | Level of soluble histones (H3, H4, H4K5ac) [2] | Cell viability relative to DMSO [3] | Cell cycle distribution [4] | Pull down of endogenous s- and t-NASP [5] | Pull down of histone H3 [5]
CC[C@H](C(=O)N1CCCC[C@H]1C(=O)O[C@H](CCc1ccc(OC)c(OC)c1)c1ccccc1OCC(=O)NCCCCCCOc1cccc2c1C(=O)N(C1CCC(=O)NC1=O)C2=O)c1cc(OC)c(OC)c(OC)c1 (some centres unmarked) [dTAG-13] | efficient and stable depletion of endogenous s- and t-NASP isoforms | reduced the pool of soluble histone H3–H4 | non-significant; also recorded: without dramatic effects on cell cycle progression and cell proliferation | non-significant; also recorded: without dramatic effects on cell cycle progression and cell proliferation |  | 
sNASP 6E mutant: sNASP-FLAG-Myc V265E I272E L282E V286E I300E L307E |  |  |  |  | impaired | efficiently pulled down histone H3
sNASP wild type (wt): epitope-tagged sNASP wild type (FLAG-Myc or Strep-HA) |  | rescued the soluble histone pool |  |  | pulled down both endogenous s- and t- NASP | 
